Reference: article PMC8648872, “A host-directed macrocyclic peptide therapeutic for MDR gram negative bacterial infections” (Scientific Reports, 2021)
Where a SMILES comes first, the peptide text is derived from it. Bridges are numbered along the chain shown (N, C = ends).

Tests used:
Kp-1705 = test: Bacterial burden in Kp-1705 infected mice; assay type: in vivo, BALB/c mice; conditions: 1.25 mg/kg i.p. 1 h p.i.
Protocol: BALB/c mice (Jackson Laboratories) 8–10 weeks of age were acclimated (3–5 to a cage for at least 5 days prior to infection) in a thermostatically controlled room with 12 h light/dark cycle. Cryopreserved K. pneumoniae cells were thawed and adjusted to a density of 6–10 × 10^8 CFU/ml, confirmed by plating on trypticase soy agar (TSA) plates. E. coli BAA-2340 was grown to log-phase in trypticase soy broth, pelleted, washed with PBS, and resuspended in PBS at 0.5–1 × 10^9 CFU/ml. Mice were infected by i.p. injection of 2–5 × 10^8 CFU of Kp-1705 or 3–6 × 10^7 CFU of E. coli BAA-2340 using a 28 g needle in a volume of 0.5 ml. Post-infection, mice were observed three times a day for at least 4 days and then daily for 28 days. Mice were euthanized when they became moribund. All experiments used both male and female mice and were repeated at least twice.
Blood, peritoneal lavage fluid, and spleen homogenates were obtained from mice following by CO2 euthanasia. Citrate-anti-coagulated blood was collected by aseptic cardiac puncture. Peritoneal lavage was performed by injecting 3 ml of PBS into the peritoneal cavity, massaging the abdomen, and then collecting fluid aseptically through a minor incision in the abdominal wall. Spleen was surgically removed and homogenized in sterile PBS using Polytron PT10-35 homogenizer. Samples were serially diluted and plated in triplicate on TSA plates, incubated overnight at 37 °C and colonies counted.

human whole blood = test: Cytokine release by human whole blood incubated with live Kp-1705; assay type: cell-based; conditions: human whole blood 1:10 in RPMI-1640, 1000 CFU/ml Kp-1705, 4 h, 37 °C, ELISA
Protocol: Log-phase […] grown in TSB were pelleted, washed twice in PBS, and suspended to 1 × 10^5 CFU/ml in RPMI-1640. EDTA-anticoagulated blood collected from a healthy adult human donor was incubated at a final dilution of 1:10 in RPMI-1640 with 1000 CFU/ml of Kp-1705 and varied concentrations of MTD12813 for 4 h 37 °C in 5% CO2 with gentle rocking. Incubation supernatants were frozen at − 80 °C. TNF and IL-6 were quantified by ELISA (Invitrogen KHC3011, KHC0061).

[1] = Peptide stability in human serum; assay type: in vitro ADME; conditions: 90% (vol/vol) human serum, 37 °C, C18 RP-UPLC with PDA detector, read-out: peptide remaining intact
Protocol: MTD12813 (final concentration of 100 µg/ml) was added to either 90% human EDTA plasma or 90% human serum and incubated at 37 °C for 48 h. Samples were processed by addition of 10% HOAc and 5% ACN (final concentrations) at time 0 and 48 h, and MTD12813 was quantified by C18 RP-HLPC on an Acquity H-Class UPLC with an analytical PDA detector using Empower 3 software (Waters). All samples were performed with technical replicates and analyzed by UPLC in duplicate and the experiment repeated once. […] A time 0 h sample was collected, and the remaining suspension incubated at 37 °C for 24 h. Samples were processed by addition of 5% formic acid/5% acetonitrile, vortexed, and clarified at 22,000×g for 10 min. Supernatant MTD12813 was then quantified by LC–MS/MS as described in PK section above. All samples were performed with technical replicates and analyzed by LC–MS/MS in duplicate.

**Q.** For CC[C@H](C)[C@@H]1NC(=O)[C@@H]2CSSC[C@H](NC(=O)[C@H]([C@@H](C)CC)NC(=O)[C@@H]3CSSC[C@H](NC1=O)C(=O)N[C@@H](C(C)C)C(=O)NCC(=O)N[C@@H](CCCNC(=N)N)C(=O)NCC(=O)N3)C(=O)N[C@@H](C(C)C)C(=O)N[C@@H](CCCNC(=N)N)C(=O)N[C@@H](CCCNC(=N)N)C(=O)N[C@@H](CCCNC(=N)N)C(=O)N2 [MTD12813] (cyclo(CICVGRGCICVRRR); disulfide 1-10, 3-8), which “reduction of viable bacteria versus saline, PLF” value (Kp-1705; 4 h p.i.) is on record?
**A.** 99.5%

**Q.** And the “reduction of viable bacteria versus saline, blood” value (Kp-1705; 4 h p.i.)?
**A.** 79.1%

**Q.** What about the “reduction of viable bacteria versus saline, spleen” value (Kp-1705; 4 h p.i.) of the same compound?
**A.** 70.4%

**Q.** And the “reduction of bacterial burden, PLF” value (Kp-1705; 24 h)?
**A.** 99.8%

**Q.** And the “reduction of bacterial burden, blood” value (Kp-1705; 24 h)?
**A.** 93.8%

**Q.** What about the “reduction of bacterial burden, spleen homogenates” value (Kp-1705; 24 h) of the same compound?
**A.** 94.4%

**Q.** What about the “release of TNF and IL-6” value (human whole blood) of the same compound?
**A.** concentration-dependently suppressed

**Q.** What about the remaining at 48 h, 100 µg/ml [1] of the same compound?
**A.** > 95%
